One assay addresses full-length human RORγt (Homo sapiens (Human), UniProt P51449). The assay can be described thus: RORγt (full-length human) reporter assay, Conditions B or C. The following applies: for RORγt (FL) Reporter Assay B or C, % inhibition (value marked *): marked *: footnote not given; for IC50: read-out: RORγt (FL) Reporter Assay B or C, IC50; for inhibition at 6 µM: read-out: RORγt (FL) Reporter Assay B or C, % inhibition @ 6 μM, Conditions B or C. The format is cell-based. In a few lines: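 HEK293T cells transiently co-transfected with GAL4-DBD–full-length human RORγt (nt 142-1635, NM_001001523.1) plus GAL4-firefly and CMV-Renilla luciferase reporters; compounds added 4-6 h post-transfection for 16-20 h in 1.3% FBS, 0.1% DMSO. Firefly signal normalized to DMSO and saturating reference compound, then to Renilla; IC50 from concentration plots.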
(In general: In a reporter assay the amount or activity of a reporter protein is the signal.)

The subject of assay [1] is IL-17 production by CD4 T cells. The assay can be described thus: Human Th17 assay. The format is cell-based.
The mark [2] stands for this setting: read-out: Human Th17 Assay, IC50.

From US10975068B2, “6-aminopyridin-3-yl thiazoles as modulators of RORγT” (Janssen Pharmaceutica NV, priority 2016, dated 2021) come the findings set out here.

Where two headings read alike, the source gives them in different places.

full-length human RORγt, sequence (P51449 other isoform, or with tags, fused parts or gaps): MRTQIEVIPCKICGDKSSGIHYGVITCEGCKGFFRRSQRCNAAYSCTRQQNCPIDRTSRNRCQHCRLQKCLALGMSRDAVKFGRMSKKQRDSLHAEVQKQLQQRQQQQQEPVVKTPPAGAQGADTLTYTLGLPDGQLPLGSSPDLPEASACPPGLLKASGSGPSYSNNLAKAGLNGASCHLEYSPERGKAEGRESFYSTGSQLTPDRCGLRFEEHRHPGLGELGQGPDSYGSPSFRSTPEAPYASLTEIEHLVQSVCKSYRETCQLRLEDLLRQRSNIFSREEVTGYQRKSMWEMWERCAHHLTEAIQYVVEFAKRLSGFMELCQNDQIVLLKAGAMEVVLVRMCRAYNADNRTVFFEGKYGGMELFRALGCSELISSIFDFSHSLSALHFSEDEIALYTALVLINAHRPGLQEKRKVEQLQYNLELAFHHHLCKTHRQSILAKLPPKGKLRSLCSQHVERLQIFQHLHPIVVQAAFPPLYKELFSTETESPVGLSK

The IC50 is the concentration needed to halve the response being measured. In the case of `C[C@H]1CC(F)(F)CN1C(=O)c1nc(C(=O)NCC(C)(C)O)sc1-c1cnc(NC2(C)CCC2)cc1C(F)(F)F` [Example 141, (S)-4-(4,4-Difluoro-2-methylpyrrolidine-1-carbonyl)-N-(2-hydroxy-2-methylpropyl)-5-(6-((1-methylcyclobutyl)amino)-4-(trifluoromethyl)pyridin-3-yl)thiazole-2-carboxamide], at full-length human RORγt (Conditions B or C), the “RORγt (FL) Reporter Assay B or C, % inhibition (value marked *)” value (“RORγt … % inhibition (value marked *)” for short) is 100* % and the IC50 was found to be 23 nM. Besides, in assay [1] (setting [2]), the IC50 is 0.0055 µM.

As usually defined, the inhibition is the relative decrease from the control value, in per cent. For `C[C@H]1CCCN1C(=O)c1nc(C(=O)NCc2n[nH]c(=O)o2)sc1-c1cnc(NC(C)(C)C)cc1C(F)(F)F` [Example 305, (S)-5-(6-(tert-Butylamino)-4-(trifluoromethyl)pyridin-3-yl)-4-(2-methylpyrrolidine-1-carbonyl)-N-((5-oxo-4,5-dihydro-1,3,4-oxadiazol-2-yl)methyl)thiazole-2-carboxamide], on full-length human RORγt (at 3 μM compound concentration, read-out: RORγt (FL) Reporter Assay B or C, % inhibition), the inhibition at 3 µM turned out to be 100%. Also, the figures for the IC50 (on full-length human RORγt; in assay [1] (setting [2])) were 36 nM and 0.089 µM, respectively.

For `C[C@H](NC(=O)c1nc(C(=O)N2CC(F)(F)C[C@@H]2C)c(-c2cnc(N[C@@H](C)C(F)(F)F)cc2C(F)F)s1)C(C)(C)O` [Example 197], the “RORγt … % inhibition (value marked *)” value on full-length human RORγt (Conditions B or C) was 91* %. The IC50 on full-length human RORγt (Conditions B or C) is 66 nM; in assay [1] (setting [2]), 0.03 µM.

In the case of `C[C@H](Nc1cc(C(F)(F)F)c(-c2sc(C(=O)NCC(C)(C)O)nc2C(=O)N2C3CCC2CC3)cn1)C1CC1` [Example 51, 4-((1s,4s)-7-Azabicyclo[2.2.1]heptane-7-carbonyl)-5-(6-(((S)-1-cyclopropylethyl)amino)-4-(trifluoromethyl)pyridin-3-yl)-N-(2-hydroxy-2-methylpropyl)thiazole-2-carboxamide], on full-length human RORγt (Conditions B or C), the “RORγt … % inhibition (value marked *)” value is 101* % and the IC50 is 4.8 nM. Further, the half-maximal inhibitory concentration (IC50) in assay [1] (read-out: Human Th17 Assay, IC50 (μM)) turned out to be 0.021 µM.

As to `C[C@H](Nc1cc(C(F)F)c(-c2sc(C(=O)NCC(C)(C)O)nc2C(=O)N2CCCC[C@@H]2C)cn1)C1CC1` [Example 37, 5-(6-(((S)-1-Cyclopropylethyl)amino)-4-(difluoromethyl)pyridin-3-yl)-N-(2-hydroxy-2-methylpropyl)-4-((S)-2-methylpiperidine-1-carbonyl)thiazole-2-carboxamide], the IC50 at full-length human RORγt (Conditions B or C) was determined as 14 nM; in assay [1] (setting [2]), 0.052 µM. Besides, on full-length human RORγt, the inhibition at 6 µM is 92.2%.

In the case of `C[C@H](Nc1cc(C(F)(F)F)c(-c2sc(C(=O)NCC(C)(C)O)nc2C(=O)N2CCC[C@@H]2C)cn1)C(F)(F)F` [Example 78, N-(2-Hydroxy-2-methylpropyl)-4-((S)-2-methylpyrrolidine-1-carbonyl)-5-(4-(trifluoromethyl)-6-(((S)-1,1,1-trifluoropropan-2-yl)amino)pyridin-3-yl)thiazole-2-carboxamide], at full-length human RORγt (Conditions B or C), the “RORγt … % inhibition (value marked *)” value is 110* % and the half-inhibitory concentration (IC50) turned out to be 49 nM. The IC50 in assay [1] (setting [2]) was determined as 0.014 µM.

Take `C[C@H]1CCCN1C(=O)c1nc(C(=O)NCC(C)(C)O)sc1-c1cnc(NCC(C)(C)C)cc1C(F)(F)F` [Example 87, (S)—N-(2-Hydroxy-2-methylpropyl)-4-(2-methylpyrrolidine-1-carbonyl)-5-(6-(neopentylamino)-4-(trifluoromethyl)pyridin-3-yl)thiazole-2-carboxamide]: the “RORγt … % inhibition (value marked *)” value at full-length human RORγt (Conditions B or C) is 140* %. Besides, the values for the IC50 (on full-length human RORγt (Conditions B or C); in assay [1] (setting [2])) were 29 nM and 0.025 µM, respectively.

Regarding `C[C@H]1CCCN1C(=O)c1nc(C(=O)NCC(C)(C)O)sc1-c1cnc(NC(C)(C)C)cc1C(F)(F)F` [Example 52, (S)-5-(6-(tert-Butylamino)-4-(trifluoromethyl)pyridin-3-yl)-N-(2-hydroxy-2-methylpropyl)-4-(2-methylpyrrolidine-1-carbonyl)thiazole-2-carboxamide], at full-length human RORγt (Conditions B or C), the “RORγt … % inhibition (value marked *)” value is on record as 106* % and the IC50 was 8.8 nM. Moreover, the IC50 in assay [1] (setting [2]) was found to be 0.01 µM.

For the compound `CC[C@H](Nc1cc(C(F)(F)F)c(-c2sc(C(=O)NCC(C)(C)O)nc2C(=O)N2CCC[C@@H]2C)cn1)C1CC1` (relative stereo) [Example 128, 5-(6-(((S*)-1-Cyclopropylpropyl)amino)-4-(trifluoromethyl)pyridin-3-yl)-N-(2-hydroxy-2-methylpropyl)-4-((S)-2-methylpyrrolidine-1-carbonyl)thiazole-2-carboxamide], on full-length human RORγt (Conditions B or C), the “RORγt … % inhibition (value marked *)” value is given as 107* % and the IC50 was found to be 23 nM. For the same compound, in assay [1] (setting [2]), the IC50 turned out to be 0.018 µM.

Regarding `C[C@H](Nc1cc(C(F)F)c(-c2sc(C(=O)NCC(C)(C)O)nc2C(=O)N2CCCC[C@@H]2C)cn1)C(F)(F)F` [Example 144], the “RORγt … % inhibition (value marked *)” value on full-length human RORγt (Conditions B or C) is reported as 106* %. In addition, the IC50 on full-length human RORγt (Conditions B or C) stood at 76 nM; in assay [1] (setting [2]) it was 0.013 µM.

In the case of `C[C@H](NC(=O)c1nc(C(=O)N2CCC[C@@H]2C)c(-c2cnc(N[C@@H](C)C(F)(F)F)cc2C(F)F)s1)C(C)(C)O` [Example 199, 5-(4-(Difluoromethyl)-6-(((S)-1,1,1-trifluoropropan-2-yl)amino)pyridine-3-yl)-N—((S)-3-hydroxy-3-methylburan-2-yl)-4-((S)-2-methylpyrrolidine-1-carbonyl)thiazole-2-carboxamide], the “RORγt … % inhibition (value marked *)” value on full-length human RORγt (Conditions B or C) is given as 94* %. The figures for the IC50 (at full-length human RORγt (Conditions B or C); in assay [1] (setting [2])) were 120 nM and 0.1 µM, respectively.

For the compound `C[C@H](Nc1cc(C(F)(F)F)c(-c2sc(C(=O)NCC(C)(C)O)nc2C(=O)N2CCCC[C@@H]2C)cn1)C(F)(F)F` [Example 47, N-(2-Hydroxy-2-methylpropyl)-4-((S)-2-methylpiperidine-1-carbonyl)-5-(4-(trifluoromethyl)-6-(((S)-1,1,1-trifluoropropan-2-yl)amino)pyridin-3-yl)thiazole-2-carboxamide], at full-length human RORγt (Conditions B or C), the “RORγt … % inhibition (value marked *)” value is on record as 96* % and the IC50 stood at 5.4 nM. In addition, in assay [1] (setting [2]), the IC50 worked out at 0.0098 µM.

`C[C@H]1CCCCN1C(=O)c1nc(C(=O)NCC(C)(C)O)sc1-c1cnc(NCC(C)(C)C)cc1C(F)(F)F` [Example 86, (S)—N-(2-Hydroxy-2-methylpropyl)-4-(2-methylpiperidine-1-carbonyl)-5-(6-(neopentylamino)-4-(trifluoromethyl)pyridin-3-yl)thiazole-2-carboxamide]: at full-length human RORγt (Conditions B or C), the “RORγt … % inhibition (value marked *)” value was 127* %. Besides, the IC50 amounted to 13 nM on full-length human RORγt (Conditions B or C) and 0.0028 µM in assay [1] (setting [2]).

`C[C@H](Nc1cc(C(F)(F)F)c(-c2sc(C(=O)NCC(C)(C)O)nc2C(=O)N2CCC[C@@H]2C)cn1)C1CC1` [Example 40, 5-(6-(((S)-1-Cyclopropylethyl)amino)-4-(trifluoromethyl)pyridin-3-yl)-N-(2-hydroxy-2-methylpropyl)-4-((S)-2-methylpyrrolidine-1-carbonyl)thiazole-2-carboxamide]: the IC50 at full-length human RORγt (Conditions B or C) was determined as 13 nM; in assay [1] (setting [2]), 0.056 µM. The inhibition at 6 µM at full-length human RORγt is 102%.
